In patent US20240252457A1, “Treatment or Prevention of Ischaemia Reperfusion Injury” (Cambridge Enterprise Limited, priority 2021, published 2024):
Entries after “also recorded” stand apart in the source; their conditions may differ.

Assays:
C2C12 cells = test: Malonate / 3A3OPA uptake in C2C12 cells at different pH (LC-MS/MS); assay type: cell-based, mouse; conditions: for intracellular uptake, effect of lowered pH: 15 min, pH 6 vs 7.4 (and 8)
Description: C2C12 cells were incubated with malonate at pH 8, 7.4 or 6 and the levels within cells measured by LC-MS/MS (mean±/−S.E.M., n=4).
C2C12 cells were treated with either malonate or 3-amino-3-oxypropanoic acid at pH 7.4 or 6 and their intracellular levels measured by LC-MS/MS (mean±/−S.E.M., n=6).

[1] = cited from earlier work
Langendorff heart = test: Lactate levels in the Langendorff heart after 20 min ischemia and 1 min reperfusion; conditions: 5 mM DSM, 20 min ischemia
Source text: Compared to reperfusion alone, lactate levels decreased in the malonate-treated hearts.

[2] = Malonate uptake in vivo, tissue levels after tail vein bolus; parameters: species or system mouse; conditions: 160 mg/kg tail vein bolus, 5 min
Description: For tissue analysis, tissues were weighed and extracted in 25 μl/mg extraction buffer containing internal standard and homogenised in a Precellys 24 homogeniser. Homogenates were centrifuged to remove insoluble debris. Extracts were analysed by LC-MS/MS and the levels of malonate assessed by interpolation of a malonate standard curve.

[3] = test system: C2C12 mouse myoblast cells; test: Malonate uptake in vitro in C2C12 cells (dose and time course); assay type: cell-based; conditions: for malonate uptake into cells (words): 0.25, 1 or 5 mM, 0 to 240 min; for intracellular malonate concentration: 5 min, cell volume 260 mg protein/ml
Description: We first explored whether malonate could be taken up by cells in culture. C2C12 mouse myoblast cells were plated at 300,000 cells/well and adhered overnight. […] Cells were extracted for mass spectrometry with 500 μl extraction buffer (50% methanol, 30% acetonitrile and 20% water) with 1 nmol ^13C-malonate internal standard centrifuged to remove insoluble debris.

[4] = test system: murine Langendorff perfused heart; test: Malonate uptake in Langendorff-perfused hearts (pH- and ischaemia-dependence, LC-MS/MS)
Description: Malonate (5 mM) was infused into Langendorff perfused mouse hearts at either pH 7.4 or 6. The heart flushed to remove vessel malonate and malonate levels measured by LC-MS/MS (mean±/−S.E.M., n=4).
Langendorff mouse hearts were reperfused with malonate (5 mM) after either 0, 5, 10, or 20 min ischaemia). The heart flushed to remove vessel malonate and malonate levels measured by LC-MS/MS (mean±/−S.E.M., n=4-5).

pKa and ionisation state = assay type: physicochemical; conditions: pH 6.4
Source text: In 3A3OPA, one carboxylic acid has been replaced with a neutral amido group leaving a single carboxylic acid of pKa˜4.75. Thus, at pH 7.4 3A3OPA resembles the monocarboxylate form of malonate.

MCAO model = test: Transient middle cerebral artery occlusion (MCAO) stroke model; assay type: in vivo, mice; conditions: i.v. for 20 min starting just prior to reperfusion; 45 min ischaemia, 2 h reperfusion
Source text: Male C57B16J mice, 6-8 weeks old, were anesthetized with 3% isoflurane and anaesthesia was maintained on 1.5-2% isoflurane. A Doppler flowmetry probe (Perimed, Sweden) was attached to the skull to continuously monitor the cerebral blood flow. Left common carotid artery (CCA) and left external carotid artery were exposed and permanently ligated. Left internal common carotid artery was clamped temporarily. Next, an incision was made on CCA and a filament with a silicon tip (0.22 mm in diameter, 2-3 mm in length, Doccol, USA) was inserted and guided forward into internal carotid artery until it reached middle cerebral artery (MCA). The occlusion of MCA was confirmed by seeing at least 70% drop in cerebral blood flow. […]
At the end of reperfusion, mice were sacrificed by cervical dislocation; brain was collected and sliced at 2 mm thicknesses and stained with 2% triphenyltetrazolium chloride in saline at 37 C for 10-15 min. […] The healthy tissue area (red-stained) in both hemispheres was measured using ImageJ. The infarct volume % was calculated by first calculating the volume of healthy tissue in each hemisphere (Σ area of each slice×thickness of slice), then by the formula: ((volume of healthy tissue in uninjured hemisphere−volume of healthy tissue in injured hemisphere)÷volume of healthy tissue in uninjured hemisphere)×100.

murine LAD MI model = test: Infarct size in murine LAD MI model (TTC staining); assay type: in vivo
Description: Mice were subjected to left anterior descending coronary artery ligation heart attack model (30 min ischaemia, 2 hr reperfusion) and malonate infused either before the onset of ischaemia or during initial reperfusion. Infarct size was determined by staining the heart with triphenyltetrazolium chloride (mean±/−S.E.M., n=5-8).
Thus, malonate was confirmed to be cardioprotective when administered at the point of reperfusion after ischaemia.
Cyclosporin A is a known inhibitor of the mitochondrial permeability transition pore (PTP).

H9c2 myoblasts = test: Intracellular malonate and succinate in H9c2 myoblasts at different pH (LC-MS/MS); assay type: cell-based; conditions: H9c2, DSM 1 or 5 mM, 15 min
[5] = cited from earlier work; remark: listed apart in the source
MCT1 = target: T1, MCT1 (Mus musculus, UniProt P53986); test: Malonate levels in Langendorff hearts perfused at pH 6 with DSM ± lactate or MCT1 inhibitor; parameters: species or system murine; conditions: pH 6, 5 min, 5 mM DSM; lactate 50 mM, AR-C141990 10 μM
T1 construct: from tissue; host or cells: isolated Langendorff-perfused murine heart
T1 sequence (P53986 1-493): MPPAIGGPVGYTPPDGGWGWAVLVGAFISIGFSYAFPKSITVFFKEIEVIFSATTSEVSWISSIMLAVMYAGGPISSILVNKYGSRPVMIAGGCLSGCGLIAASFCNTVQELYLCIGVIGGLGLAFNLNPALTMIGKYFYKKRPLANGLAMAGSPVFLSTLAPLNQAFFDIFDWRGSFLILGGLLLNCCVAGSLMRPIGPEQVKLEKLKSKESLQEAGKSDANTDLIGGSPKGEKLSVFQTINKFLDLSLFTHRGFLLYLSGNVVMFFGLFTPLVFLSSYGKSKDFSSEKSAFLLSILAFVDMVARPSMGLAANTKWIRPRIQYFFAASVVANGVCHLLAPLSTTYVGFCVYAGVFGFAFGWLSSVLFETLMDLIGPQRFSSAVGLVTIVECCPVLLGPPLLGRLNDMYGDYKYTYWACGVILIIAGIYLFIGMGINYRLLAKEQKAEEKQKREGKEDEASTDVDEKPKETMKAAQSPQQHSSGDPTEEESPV
T1 sequence (P18572 140-389 partner limits assumed): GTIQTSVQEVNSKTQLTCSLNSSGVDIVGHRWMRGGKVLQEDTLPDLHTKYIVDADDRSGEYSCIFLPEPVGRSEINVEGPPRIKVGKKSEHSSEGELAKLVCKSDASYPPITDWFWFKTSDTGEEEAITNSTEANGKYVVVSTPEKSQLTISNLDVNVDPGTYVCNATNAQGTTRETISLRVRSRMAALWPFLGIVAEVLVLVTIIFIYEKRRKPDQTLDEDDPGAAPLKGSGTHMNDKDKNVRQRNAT
Source text: Malonate uptake into the Langendorff perfused heart was blocked by the MCT1 inhibitor AR-C141990, in the perfusion medium, and by excess lactate.

NC(=O)CC(=O)O [3A3OPA, 3-amino-3-oxypropanoic acid]
uptake into cells at pH 7.4 compared with malonate (C2C12 cells; 5 mM, pH 7.4): more 3A3OPA being taken up into cells at pH 7.4 than malonate | intracellular uptake, effect of lowered pH (C2C12 cells): changed negligibly | pKa of single carboxylic acid [1]: ~4.75

O=C([O-])CC(=O)[O-].[Na+].[Na+] [DSM, disodium malonate]
lactate levels compared to reperfusion alone (Langendorff heart): decreased | tissue levels of malonate, brain [2]: uptake in the brain | tissue levels of malonate, heart [2]: significant amounts | tissue levels of malonate, kidney [2]: particularly high | tissue levels of malonate, liver [2]: significant amounts | intracellular malonate levels ([3]; 5 mM DSM, after 5 min): ~2 nmol/mg protein | malonate uptake into cells (words) ([3]; listed as Malonate): both dose and time-dependent | malonate uptake into cells (words) ([3]; listed as disodium malonate): rapid malonate uptake | intracellular malonate concentration ([3]; 250 μM malonate): about 50 μM | intracellular malonate concentration ([3]; 5 mM malonate): ~500 µM | intracellular malonate levels ([3]; incubated with 250 μM disodium malonate): 0.2-0.4 nmol/mg protein | malonate uptake in heart after ischaemia ([4]; 0, 5, 10 or 20 min ischaemia, reperfused with 5 mM DSM pH 7.4): ischemic time-dependent uptake | malonate uptake in heart, infused at low pH vs neutral pH ([4]; 5 mM DSM, pH 6 vs pH 7.4): greatly enhanced | intracellular uptake, effect of lowered pH (C2C12 cells): greatly enhanced | fraction in monocarboxylate form (pKa and ionisation state): approximately 16% | necrotic brain infarct volume (MCAO model): decreased | infarct size (cardioprotection) (murine LAD MI model; 160 mg/kg infusion at reperfusion): cardioprotective | infarct size, cardioprotection in combination with cyclosporin A (murine LAD MI model; DSM 160 mg/kg with cyclosporin A 10 mg/kg at reperfusion): additive to cyclosporin A alone | levels of malonate in the cell at pH 6 vs pH 7.4 or 8 (H9c2 myoblasts): significantly higher | succinate levels (malonate-dependent SDH inhibition) at low pH (H9c2 myoblasts): greater succinate accumulation | protection against myocardial IR injury ([5]; small animal ex vivo and large animal models): protective

CC(C)Cn1c(=O)n(C)c(=O)c2c(C(=O)N3CC[C@@H](O)C3)c(Cc3ccnc4ccccc34)sc21 [AR-C141990]
effect on malonate uptake into the Langendorff perfused heart (MCT1): blocked

COC(=O)CC(=O)OC [DMM, dimethyl malonate]
necrotic brain infarct volume (MCAO model): not to be protective; also recorded: no significant difference | protection against IR injury ([5]; administered prior to and throughout ischaemia (WO 2016/001686)): protective

CC(O)C(=O)O (stereo not shown) [lactate]
effect on malonate uptake into the Langendorff perfused heart (MCT1): blocked
